The structures appear in SMILES notation.

The test system of the assay is ATF4 luciferase reporter in HEK293T cells. As to the kind of experiment: ATF4-Luc assay (in vitro model of VWMD). The class given is cell-based, human. The note with it: Homo sapiens, HEK-293T, 7 h, HEK293T cells carrying the ATF4 luciferase reporter, 1 μg/mL tunicamycin, One Glo luminescence. The gist of the method: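 Tunicamycin (1 μg/mL) stress with co-added compound for 7 hours in HEK293T cells stably carrying an ATF4 5′-UTR–luciferase reporter. EC50 values come from the luminescent signal (One Glo).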
In general terms: A reporter such as luciferase makes a cellular process visible.

Broadly, the EC50 is the concentration needed to bring the measured effect to its halfway point. `O=C(NC12CC(n3cc(C(=O)N4CC[C@H](OC(F)(F)F)C4)cn3)(C1)C2)[C@H]1C[C@@H](O)c2cc(Cl)ccc2O1` [Compound 371, (2R,4R)-6-chloro-4-hydroxy-N-(3-{4-[(3S)-3-(trifluoromethoxy)pyrrolidine-1-carbonyl]-1H-pyrazol-1-yl}bicyclo[1.1.1]pentan-1-yl)-3,4-dihydro-2H-1-benzopyran-2-carboxamide]: the concentration for a half-maximal effect (EC50) was less than 10 nM.

In the case of `COc1ccc2nn([C@H]3CC[C@H](NC(=O)[C@H]4C[C@@H](O)c5cc(Cl)ccc5O4)CC3)cc2n1` [Compound 508, (2R,4R)-6-chloro-4-hydroxy-N-[(1r,4R)-4-(5-methoxy-2H-pyrazolo[4,3-b]pyridin-2-yl)cyclohexyl]-3,4-dihydro-2H-1-benzopyran-2-carboxamide], the half-maximal effective concentration (EC50) is 10 to 50 nM.

`O=C(COc1ccc(Cl)c(F)c1)NC12CC(c3ccc(OCCOC(F)(F)F)nc3)(C1)C2` [Compound 456, 2-(4-chloro-3-fluorophenoxy)-N-(3-{6-[2-(trifluoromethoxy)ethoxy]pyridin-3-yl}bicyclo[1.1.1]pentan-1-yl)acetamide]: the EC50 was 50 to 250 nM.

`O=C(NC12CC(n3cnc([C@H]4C[C@@H](OC(F)(F)F)C4)c3)(C1)C2)[C@H]1C[C@@H](O)c2cc(Cl)c(F)cc2O1` [Compound 472, (2R,4R)-6-chloro-7-fluoro-4-hydroxy-N-(3-{4-[(1s,3S)-3-(trifluoromethoxy)cyclobutyl]-1H-imidazol-1-yl}bicyclo[1.1.1]pentan-1-yl)-3,4-dihydro-2H-1-benzopyran-2-carboxamide]: the EC50 was less than 10 nM.

For `O=C(NC12CC(n3cc(NCCOC(F)(F)F)cn3)(C1)C2)[C@H]1C[C@@H](O)c2cc(Cl)ccc2O1` [Compound 437, (2R,4R)-6-chloro-4-hydroxy-N-[3-(4-{[2-(trifluoromethoxy)ethyl]amino}-1H-pyrazol-1-yl)bicyclo[1.1.1]pentan-1-yl]-3,4-dihydro-2H-1-benzopyran-2-carboxamide], the EC50 fell in the range of 10 to 50 nM.

As for `O=C(NC12CC(n3cc(-c4ccc(OC(F)(F)F)cn4)cn3)(C1)C2)[C@H]1C[C@@H](O)c2ccccc2O1` [Compound 367, (2R,4R)-4-hydroxy-N-(3-{4-[5-(trifluoromethoxy)pyridin-2-yl]-1H-pyrazol-1-yl}bicyclo[1.1.1]pentan-1-yl)-3,4-dihydro-2H-1-benzopyran-2-carboxamide], the EC50 was less than 10 nM.

Consider `O=C(NC12CC(c3cnn(CCCOC(F)(F)F)c3)(C1)C2)[C@H]1C[C@@H](O)c2cc(Cl)ccc2O1` [Compound 528, (2R,4R)-6-chloro-4-hydroxy-N-(3-{1-[3-(trifluoromethoxy)propyl]-1H-pyrazol-4-yl}bicyclo[1.1.1]pentan-1-yl)-3,4-dihydro-2H-1-benzopyran-2-carboxamide], for which the EC50 was in the range of 10 to 50 nM.

Turning to `O=C(NC12CC(n3cc(-c4ccc(OC(F)(F)F)cc4)nn3)(C1)C2)[C@H]1C[C@@H](O)c2cc(Cl)ccc2O1` [Compound 357, (2R,4R)-6-chloro-4-hydroxy-N-(3-{4-[4-(trifluoromethoxy)phenyl]-1H-1,2,3-triazol-1-yl}bicyclo[1.1.1]pentan-1-yl)-3,4-dihydro-2H-1-benzopyran-2-carboxamide], the EC50 is less than 10 nM.

In the case of `O=C(NC12CC(n3cc4c(n3)CN(CCOC(F)(F)F)C4)(C1)C2)[C@H]1C[C@@H](O)c2cc(Cl)c(F)cc2O1` [Compound 512, (2R,4R)-6-chloro-7-fluoro-4-hydroxy-N-(3-{5-[2-(trifluoromethoxy)ethyl]-5,6-dihydropyrrolo[3,4-c]pyrazol-2(4H)-yl}bicyclo[1.1.1]pentan-1-yl)-3,4-dihydro-2H-1-benzopyran-2-carboxamide], the EC50 was 10 to 50 nM.

For the compound `O=C(NC12CC(n3cc(-c4ccc(C(F)(F)F)cn4)cn3)(C1)C2)[C@H]1C[C@@H](O)c2cc(Cl)c(Cl)cc2O1` [Compound 567, (2R,4R)-6,7-dichloro-4-hydroxy-N-(3-{4-[5-(trifluoromethyl)pyridin-2-yl]-1H-pyrazol-1-yl}bicyclo[1.1.1]pentan-1-yl)-3,4-dihydro-2H-1-benzopyran-2-carboxamide], the 50% effective concentration (EC50) was less than 10 nM.

With `O=C(NC12CC(n3cc(OCCCOC(F)(F)F)cn3)(C1)C2)[C@H]1C[C@H](O)c2cc(C(F)(F)F)c(F)cc2O1` [Compound 636, (2R,4S)-7-fluoro-4-hydroxy-N-(3-{4-[3-(trifluoromethoxy)propoxy]-1H-pyrazol-1-yl}bicyclo[1.1.1]pentan-1-yl)-6-(trifluoromethyl)-3,4-dihydro-2H-1-benzopyran-2-carboxamide], the EC50 was less than 10 nM.

As for `O=C(NC12CC(n3cc(-c4cnc(C5CC5)nc4)cn3)(C1)C2)[C@H]1C[C@@H](O)c2cc(Cl)ccc2O1` [Compound 365, (2R,4R)-6-chloro-N-{3-[4-(2-cyclopropylpyrimidin-5-yl)-1H-pyrazol-1-yl]bicyclo[1.1.1]pentan-1-yl}-4-hydroxy-3,4-dihydro-2H-1-benzopyran-2-carboxamide], the EC50 is less than 10 nM.

Turning to `COc1ccc2nn(C34CC(NC(=O)[C@H]5C[C@@H](O)c6cc(Cl)c(F)cc6O5)(C3)C4)cc2c1` [Compound 505, (2R,4R)-6-chloro-7-fluoro-4-hydroxy-N-[3-(5-methoxy-2H-indazol-2-yl)bicyclo[1.1.1]pentan-1-yl]-3,4-dihydro-2H-1-benzopyran-2-carboxamide], the EC50 was less than 10 nM.

`O=C(CO[C@H]1C[C@@H](OC(F)(F)F)C1)NC12CC(NC(=O)[C@H]3C[C@@H](O)c4cc(Cl)ccc4O3)(C1)C2` [Compound 164, (2R,4R)-6-chloro-4-hydroxy-N-[3-(2-{[cis-3-(trifluoromethoxy)cyclobutyl]oxy}acetamido)bicyclo[1.1.1]pentan-1-yl]-3,4-dihydro-2H-1-benzopyran-2-carboxamide]: the EC50 was less than 10 nM.

For the compound `COc1cc2cn(C34CC(NC(=O)[C@H]5C[C@@H](O)c6cc(Cl)c(Cl)cc6O5)(C3)C4)nc2cn1` [Compound 503, (2R,4R)-6,7-dichloro-4-hydroxy-N-[3-(5-methoxy-2H-pyrazolo[3,4-c]pyridin-2-yl)bicyclo[1.1.1]pentan-1-yl]-3,4-dihydro-2H-1-benzopyran-2-carboxamide], the concentration giving a half-maximal response (EC50) is less than 10 nM.

Regarding `O=C(NC12CC(n3cc(OC[C@H]4C[C@@H](OC(F)(F)F)C4)cn3)(C1)C2)[C@H]1C[C@@H](O)c2cc(Cl)ccc2O1` [Compound 402, (2R,4R)-6-chloro-4-hydroxy-N-[3-(4-{[cis-3-(trifluoromethoxy)cyclobutyl]methoxy}-1H-pyrazol-1-yl)bicyclo[1.1.1]pentan-1-yl]-3,4-dihydro-2H-1-benzopyran-2-carboxamide], the half-maximal effective concentration (EC50) was less than 10 nM.

For `O=C(NC12CC(n3cc(OCCCC(F)(F)F)cn3)(C1)C2)[C@H]1C[C@@H](O)c2cc(C(F)(F)F)c(F)cc2O1` [Compound 641, (2R,4R)-7-fluoro-4-hydroxy-N-{3-[4-(4,4,4-trifluorobutoxy)-1H-pyrazol-1-yl]bicyclo[1.1.1]pentan-1-yl}-6-(trifluoromethyl)-3,4-dihydro-2H-1-benzopyran-2-carboxamide], the EC50 was less than 10 nM.

For `O=C(COc1ccc(C(F)(F)F)cc1O)NC12CC(n3cc([C@H]4C[C@@H](OC(F)(F)F)C4)nn3)(C1)C2` [Compound 615, 2-[2-hydroxy-4-(trifluoromethyl)phenoxy]-N-(3-{4-[(1s,3s)-3-(trifluoromethoxy)cyclobutyl]-1H-1,2,3-triazol-1-yl}bicyclo[1.1.1]pentan-1-yl)acetamide], the 50% effective concentration (EC50) is 10 to 50 nM.

With `O=C(NC12CC(c3cnc(OCCCOC(F)(F)F)o3)(C1)C2)[C@H]1C[C@@H](O)c2cc(Cl)ccc2O1` [Compound 415, (2R,4R)-6-chloro-4-hydroxy-N-(3-{2-[3-(trifluoromethoxy)propoxy]-1,3-oxazol-5-yl}bicyclo[1.1.1]pentan-1-yl)-3,4-dihydro-2H-1-benzopyran-2-carboxamide], the concentration for a half-maximal effect (EC50) was less than 10 nM.

As to `COCc1ccc2nn(C34CC(NC(=O)[C@H]5C[C@@H](O)c6cc(Cl)ccc6O5)(C3)C4)cc2c1` [Compound 510, (2R,4R)-6-chloro-4-hydroxy-N-{3-[5-(methoxymethyl)-2H-indazol-2-yl]bicyclo[1.1.1]pentan-1-yl}-3,4-dihydro-2H-1-benzopyran-2-carboxamide], the EC50 lay within 10 to 50 nM.

For `O=C(NC12CC(n3cc(C(=O)N4CCC(C(F)(F)F)C4)cn3)(C1)C2)[C@H]1C[C@@H](O)c2cc(Cl)ccc2O1` (stereo partly drawn) [Compound 535, (2R,4R)-6-chloro-4-hydroxy-N-(3-{4-[3-(trifluoromethyl)pyrrolidine-1-carbonyl]-1H-pyrazol-1-yl}bicyclo[1.1.1]pentan-1-yl)-3,4-dihydro-2H-1-benzopyran-2-carboxamide], the EC50 lay within 10 to 50 nM.

For `O=C(NC12CCC(n3cc(OCCCOC(F)(F)F)cn3)(C1)C2)[C@H]1C[C@@H](O)c2cc(Cl)ccc2O1` [Compound 628, (2R,4R)-6-chloro-4-hydroxy-N-(4-{4-[3-(trifluoromethoxy)propoxy]-1H-pyrazol-1-yl}bicyclo[2.1.1]hexan-1-yl)-3,4-dihydro-2H-1-benzopyran-2-carboxamide], the EC50 is 50 to 250 nM.

Regarding `O=C(NC12CC(n3cc(COCCOC(F)(F)F)nn3)(C1)C2)[C@H]1C[C@@H](O)c2cc(Cl)ccc2O1` [Compound 522, (2R,4R)-6-chloro-4-hydroxy-N-[3-(4-{[2-(trifluoromethoxy)ethoxy]methyl}-1H-1,2,3-triazol-1-yl)bicyclo[1.1.1]pentan-1-yl]-3,4-dihydro-2H-1-benzopyran-2-carboxamide], the EC50 was less than 10 nM.

In the case of `O=C(COc1ccc(Cl)cc1O)NC12CC(n3cc(OCCOC(F)(F)F)cn3)(C1)C2` [Compound 616, 2-(4-chloro-2-hydroxyphenoxy)-N-(3-{4-[2-(trifluoromethoxy)ethoxy]-1H-pyrazol-1-yl}bicyclo[1.1.1]pentan-1-yl)acetamide], the EC50 was less than 10 nM.

As to `O=C(NC12CC(n3cc([C@H]4C[C@@H](OC(F)(F)F)C4)cn3)(C1)C2)[C@H]1C[C@@H](O)c2cc(Cl)ccc2O1` [Compound 330, (2R,4R)-6-chloro-4-hydroxy-N-(3-{4-[cis-3-(trifluoromethoxy)cyclobutyl]-1H-pyrazol-1-yl}bicyclo[1.1.1]pentan-1-yl)-3,4-dihydro-2H-1-benzopyran-2-carboxamide], the EC50 is less than 10 nM.

The record behind these values is patent US20250145594A1, “MODULATORS OF THE INTEGRATED STRESS PATHWAY” (Calico Life Sciences LLC, priority 2020, published 2025).
